We go through 25 molecules from patent US20230146675A1, “PYRIMIDO[5,4-d]PYRIMIDINE DERIVATIVES AS ENT INHIBITORS FOR THE TREATMENT OF CANCERS, AND COMBINATION THEREOF WITH ADENOSINE RECEPTOR ANTAGONISTS” (ITEOS BELGIUM SA, priority 2020, published 2023).

In this assay the target is T1, human ENT1 (Homo sapiens, UniProt Q99808).
T1 sequence (Q99808 1-456): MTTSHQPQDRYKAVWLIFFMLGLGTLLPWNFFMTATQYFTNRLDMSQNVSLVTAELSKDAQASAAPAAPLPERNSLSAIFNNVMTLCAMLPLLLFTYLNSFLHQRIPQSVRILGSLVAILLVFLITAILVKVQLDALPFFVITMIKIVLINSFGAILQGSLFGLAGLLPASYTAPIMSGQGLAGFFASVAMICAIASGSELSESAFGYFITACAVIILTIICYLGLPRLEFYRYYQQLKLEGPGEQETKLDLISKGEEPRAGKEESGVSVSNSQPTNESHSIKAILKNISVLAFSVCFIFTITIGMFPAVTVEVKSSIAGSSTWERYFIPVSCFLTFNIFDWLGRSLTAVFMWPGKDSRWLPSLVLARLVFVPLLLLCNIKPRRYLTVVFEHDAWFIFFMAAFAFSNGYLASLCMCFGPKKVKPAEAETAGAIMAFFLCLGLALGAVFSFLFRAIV
The assay is described as follows: ENT1 binding assay (competition with Sahenta-DY647 on JAR cells). The arrangement: JAR cells expressing ENT1 were bought from ATCC; host or cells: JAR cells. The following applies: binned IC50. In a few lines: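 JAR cells were incubated with test compounds and the fluorescent ligand Sahenta-DY647 in competition. Plates were washed twice by centrifugation (4 min, 400 rcf, 4 °C). Binding potency was derived from the final fluorescence.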
The term IC50 denotes the concentration at which inhibition is half-maximal. Higher therefore signals a need for much substance. Regarding `COCCN(CCOC)c1nc(N2CCC(OC)CC2)c2nc(N(CCOC)CCOC)nc(NCc3ccc(Cl)c(Cl)c3)c2n1` [Compound 137, N4-(3,4-dichlorobenzyl)-N2,N2,N6,N6-tetrakis(2-methoxyethyl)-8-(4-methoxypiperidin-1-yl)pyrimido[5,4-d]pyrimidine-2,4,6-triamine], the IC50 was under 100 nM. In the case of `COCCN(CCOC)c1nc(N2CC(=O)N3CCCC3C2)c2nc(N(CCO)CCO)nc(N3CCC(OC)CC3)c2n1` (stereo not shown) [Compound 314, 2-(6-(bis(2-hydroxyethyl)amino)-2-(bis(2-methoxyethyl)amino)-8-(4-methoxypiperidin-1-yl)pyrimido[5,4-d]pyrimidin-4-yl)hexahydropyrrolo[1,2-a]pyrazin-4(1H)-one], the IC50 was in the range of 500 to 1000 nM. With `COCCN(CCOC)c1nc(N2CC(O)(C(F)(F)F)C2)c2nc(N(CCOC)CCOC)nc(N3CCS(=O)(=O)CC3)c2n1` [Compound 192, 4-(2,6-bis(bis(2-methoxyethyl)amino)-8-(3-hydroxy-3-(trifluoromethyl)azetidin-1-yl)pyrimido[5,4-d]pyrimidin-4-yl)thiomorpholine 1,1-dioxide] the figure was 100 to 500 nM; with `COCCN(CCOC)c1nc(N2CCC(OC)CC2)c2nc(N(CCO)CCCS(C)(=O)=O)nc(N3CCN(C)C(=O)C3)c2n1` [Compound 280, 4-(6-(bis(2-methoxyethyl)amino)-2-((2-hydroxyethyl)(3-(methylsulfonyl)propyl)amino)-8-(4-methoxypiperidin-1-yl)pyrimido[5,4-d]pyrimidin-4-yl)-1-methylpiperazin-2-one], 100 to 500 nM; with `COCCN(CCOC)c1nc(N2CCC(CO)C2)c2nc(N(CCOC)CCOC)nc(N3CCC(OC)CC3)c2n1` (stereo not shown) [Compound 136, (1-(2,6-bis(bis(2-methoxyethyl)amino)-8-(4-methoxypiperidin-1-yl)pyrimido[5,4-d]pyrimidin-4-yl)pyrrolidin-3-yl)methanol], under 100 nM.

`COCCN(CCOC)c1nc(N2CCC(OC)CC2)c2nc(N(CCOC)CCOC)nc(NCc3cscn3)c2n1` [Compound 66, N2,N2,N6,N6-tetrakis(2-methoxyethyl)-8-(4-methoxypiperidin-1-yl)-N4-(thiazol-4-ylmethyl)pyrimido[5,4-d]pyrimidine-2,4,6-triamine] showed an IC50 of 500 to 1000 nM. Next, `COCCN(CCOC)c1nc(N2CCN(C)C(=O)C2)c2nc(N(CCOC)CCOC)nc(N3CCN(C)C(=O)C3)c2n1` [Compound 187, 4,4′-(2,6-bis(bis(2-methoxyethyl)amino)pyrimido[5,4-d]pyrimidine-4,8-diyl)bis(1-methylpiperazin-2-one)]: 100 to 500 nM; `COCCOC1CCN(c2nc(N(CCOC)CCOC)nc3c(N4CCC(OC)CC4)nc(N(CCOC)CCOC)nc23)CC1` [Compound 202, 4-(4-(2-methoxyethoxy)piperidin-1-yl)-N2,N2,N6,N6-tetrakis(2-methoxyethyl)-8-(4-methoxypiperidin-1-yl)pyrimido[5,4-d]pyrimidine-2,6-diamine]: 500 to 1000 nM. With `COCCN(CCOC)c1nc(N2CCC(OC)CC2)c2nc(N(CCOC)CCOC)nc(N3CCC(NC(C)=O)CC3)c2n1` [Compound 88, N-(1-(2,6-bis(bis(2-methoxyethyl)amino)-8-(4-methoxypiperidin-1-yl)pyrimido[5,4-d]pyrimidin-4-yl)piperidin-4-yl)acetamide] the figure was 500 to 1000 nM; with `COCCN(CCOC)c1nc(N2CCC(OC)CC2)c2nc(N(CCOC)CCOC)nc(NCCCCCC#N)c2n1` [Compound 182, 6-((2,6-bis(bis(2-methoxyethyl)amino)-8-(4-methoxypiperidin-1-yl)pyrimido[5,4-d]pyrimidin-4-yl)amino)hexanenitrile], 500 to 1000 nM; with `COCCN(CCOC)c1nc(NCc2cccc(F)c2)c2nc(N(CCO)CCO)nc(N3CCC(OC)CC3)c2n1` [Compound 324, 2,2′-((6-(bis(2-methoxyethyl)amino)-8-((3-lluorobenzyl)amino)-4-(4-methoxypiperidin-1-yl)pyrimido[5,4-d]pyrimidin-2-yl)azanediyl)bis(ethan-1-ol)], under 100 nM. Consider `COCCN(CCOC)c1nc(N2CCC(O)C2)c2nc(N(CCOC)CCOC)nc(N3CCC(OC)CC3)c2n1` (stereo not shown) [Compound 94, 1-(2,6-bis(bis(2-methoxyethyl)amino)-8-(4-methoxypiperidin-1-yl)pyrimido[5,4-d]pyrimidin-4-yl)pyrrolidin-3-ol], for which the 50% inhibitory concentration (IC50) was 500 to 1000 nM.

The molecule `COCCN(CCOC)c1nc(N2CCC(OC)CC2)c2nc(N(CCOC)CCOC)nc(NCc3ccncc3)c2n1` [Compound 61, N2,N2,N6,N6-tetrakis(2-methoxyethyl)-8-(4-methoxypiperidin-1-yl)-N4-(pyridin-4-ylmethyl)pyrimido[5,4-d]pyrimidine-2,4,6-triamine] returned an IC50 of 500 to 1000 nM.

In turn, `COCCN(CCOC)c1nc(N2CCC(OC)CC2)c2nc(N(CCOC)CCOC)nc(NCc3cccc(C#N)c3)c2n1` [Compound 145, 3-(((2,6-bis(bis(2-methoxyethyl)amino)-8-(4-methoxypiperidin-1-yl)pyrimido[5,4-d]pyrimidin-4-yl)amino)methyl)benzonitrile] came in with an IC50 of under 100 nM. With `COCCN(CCOC)c1nc(N2CCN(C)C(=O)C2)c2nc(N(CCOC)CCOC)nc(NCc3cccc(C(N)=O)c3)c2n1` [Compound 203, 3-(((2,6-bis(bis(2-methoxyethyl)amino)-8-(4-methyl-3-oxopiperazin-1-yl)pyrimido[5,4-d]pyrimidin-4-yl)amino)methyl)benzamide] the figure was 100 to 500 nM; with `COCCN(CCOC)c1nc(N2CCC(F)C2)c2nc(N(CCOC)CCOC)nc(N3CCC(OC)CC3)c2n1` (stereo not shown) [Compound 104, 4-(3-fluoropyrrolidin-1-yl)-N2,N2,N6,N6-tetrakis(2-methoxyethyl)-8-(4-methoxypiperidin-1-yl)pyrimido[5,4-d]pyrimidine-2,6-diamine], 100 to 500 nM; with `COCCN(CCOC)c1nc(N2CCC(OC)CC2)c2nc(N(CCOC)CCOC)nc(OCc3ccc(Cl)c(Cl)c3)c2n1` [Compound 154, 4-((3,4-dichlorobenzyl)oxy)-N2,N2,N6,N6-tetrakis(2-methoxyethyl)-8-(4-methoxypiperidin-1-yl)pyrimido[5,4-d]pyrimidine-2,6-diamine], under 100 nM. Next, `COCCN(CCOC)c1nc(N2CCC(OC)CC2)c2nc(N(CCOC)CCOC)nc(NCc3cnn(C(C)C)c3)c2n1` [Compound 163, N4-((1-isopropyl-1H-pyrazol-4-yl)methyl)-N2,N2,N6,N6-tetrakis(2-methoxyethyl)-8-(4-methoxypiperidin-1-yl)pyrimido[5,4-d]pyrimidine-2,4,6-triamine]: 100 to 500 nM; `COCCN(CCOC)c1nc(N2CC(C)(C)C2)c2nc(N(CCOC)CCOC)nc(N3CCC(OC)CC3)c2n1` [Compound 100, 4-(3,3-dimethylazetidin-1-yl)-N2,N2,N6,N6-tetrakis(2-methoxyethyl)-8-(4-methoxypiperidin-1-yl)pyrimido[5,4-d]pyrimidine-2,6-diamine]: 100 to 500 nM. With `COCCN(CCOC)c1nc(N2CCN(C)C(=O)C2)c2nc(N(CCOC)CCOC)nc(NCc3cccc(OC(F)(F)F)c3)c2n1` [Compound 210, 4-(2,6-bis(bis(2-methoxyethyl)amino)-8-((3-(trifluoromethoxy)benzyl)amino)pyrimido[5,4-d]pyrimidin-4-yl)-1-methylpiperazin-2-one] the figure was under 100 nM. The molecule `COCCN(CCOC)c1nc(N2CC(O)(C(F)(F)F)C2)c2nc(N(CCOC)CCOC)nc(N3CCN(C)C(=O)C3)c2n1` [Compound 189, 4-(2,6-bis(bis(2-methoxyethyl)amino)-8-(3-hydroxy-3-(trifluoromethyl)azetidin-1-yl)pyrimido[5,4-d]pyrimidin-4-yl)-1-methylpiperazin-2-one] registered an IC50 of 100 to 500 nM.

Molecule `CCOC(=O)C1CCN(c2nc(N(CCOC)CCOC)nc3c(N4CCC(C(=O)OCC)CC4)nc(N(CCO)CCO)nc23)CC1` [Compound 14, diethyl 1,1′-(2-(bis(2-hydroxyethyl)amino)-6-(bis(2-methoxyethyl)amino)pyrimido[5,4-d]pyrimidine-4,8-diyl)bis(piperidine-4-carboxylate)] showed an IC50 of 500 to 1000 nM.

In the case of `COCCN(CCOC)c1nc(N2CCC(OC)CC2)c2nc(N(CCOC)CCOC)nc(NCCc3cccnc3)c2n1` [Compound 63, N2,N2,N6,N6-tetrakis(2-methoxyethyl)-8-(4-methoxypiperidin-1-yl)-N4-(2-(pyridin-3-yl)ethyl)pyrimido[5,4-d]pyrimidine-2,4,6-triamine], the IC50 lay in the range of 100 to 500 nM. Next, `COCCN(CCOC)c1nc(N2CCN(C)C(=O)C2)c2nc(N(CCO)CCOC)nc(N3CCC(OC)CC3)c2n1` [Compound 276, 4-(2-(bis(2-methoxyethyl)amino)-6-((2-hydroxyethyl)(2-methoxyethyl)amino)-8-(4-methoxypiperidin-1-yl)pyrimido[5,4-d]pyrimidin-4-yl)-1-methylpiperazin-2-one]: 100 to 500 nM; `COCCN(CCOC)c1nc(N2CCC3(CC2)NC(=O)NC3=O)c2nc(N(CCOC)CCOC)nc(N3CCC(OC)CC3)c2n1` [Compound 117, 8-(2,6-bis(bis(2-methoxyethyl)amino)-8-(4-methoxypiperidin-1-yl)pyrimido[5,4-d]pyrimidin-4-yl)-1,3,8-triazaspiro[4.5]decane-2,4-dione]: 500 to 1000 nM.
